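The compound was tested at five concentrations on cells cultured in 96-well plates, with a 48-hour exposure period. GI50 is the concentration that inhibits growth by half.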 Activity calls are given as the source filed them. Cut-off read from the data, not from the text of the source: active = GI50 up to about 1.1 µM and inactive = higher.
Columns and labels:
Assay in all cases: inhibition of tumour cell growth, NCI panel, 48 h
SK-MEL-5 = test system: SK-MEL-5
SW-620 = test system: SW-620
OVCAR-5 = test system: OVCAR-5
M14 = test system: M14
PC-3 = test system: PC-3
A549 = test system: A549
COLO 205 = test system: COLO 205
DU-145 = test system: DU-145
BT-549 = test system: BT-549
SF-268 = test system: SF-268
MOLT-4 = test system: MOLT-4
MDA-MB-231 = test system: MDA-MB-231
U-251 = test system: U-251
MDA-MB-435 = test system: MDA-MB-435
HL-60 = test system: HL-60
A498 = test system: A498
MDA-N = test system: MDA-N
MCF7 = test system: MCF7
OVCAR-3 = test system: OVCAR-3
NCI-H460 = test system: NCI-H460
SNB-75 = test system: SNB-75
HCC 2998 = test system: HCC 2998
EKVX = test system: EKVX
NCI-H522 = test system: NCI-H522
SN12C = test system: SN12C
SK-MEL-2 = test system: SK-MEL-2
SR = test system: SR
NCI/ADR-RES = test system: NCI/ADR-RES
NCI-H226 = test system: NCI-H226
SF-539 = test system: SF-539
Hs-578T = test system: Hs-578T
Malme-3M = test system: Malme-3M
KM12 = test system: KM12
786-0 = test system: 786-0
SNB-19 = test system: SNB-19
HT-29 = test system: HT-29
LOX IMVI = test system: LOX IMVI
SK-OV-3 = test system: SK-OV-3
SK-MEL-28 = test system: SK-MEL-28
RPMI-8226 = test system: RPMI-8226
HOP-92 = test system: HOP-92
UACC-257 = test system: UACC-257
T47D = test system: T47D
UO-31 = test system: UO-31
CAKI-1 = test system: CAKI-1
UACC-62 = test system: UACC-62
HCT-116 = test system: HCT-116
OVCAR-8 = test system: OVCAR-8
ACHN = test system: ACHN
HOP-62 = test system: HOP-62
OVCAR-4 = test system: OVCAR-4
IGROV-1 = test system: IGROV-1
TK-10 = test system: TK-10
SF-295 = test system: SF-295
HCT-15 = test system: HCT-15
K562 = test system: K562
RXF 393 = test system: RXF 393
NCI-H23 = test system: NCI-H23
CCRF-CEM = test system: CCRF-CEM

COc1cc2ccc(C(C)NCC#N)cc2cc1OC (stereo not given)
GI50 (SK-MEL-5): > 100 µM (inactive) | GI50 (SW-620): > 100 µM (inactive) | GI50 (OVCAR-5): > 100 µM (inactive) | GI50 (M14): > 100 µM (inactive) | GI50 (PC-3): > 100 µM (inactive) | GI50 (A549): > 100 µM (inactive) | GI50 (COLO 205): > 100 µM (inactive) | GI50 (DU-145): > 100 µM (inactive) | GI50 (BT-549): > 100 µM (inactive) | GI50 (SF-268): > 100 µM (inactive) | GI50 (MOLT-4): 28.8 µM (inactive) | GI50 (MDA-MB-231): > 100 µM (inactive) | GI50 (U-251): > 100 µM (inactive) | GI50 (MDA-MB-435): > 100 µM (inactive) | GI50 (HL-60): 46.5 µM (inactive) | GI50 (A498): > 100 µM (inactive) | GI50 (MDA-N): > 100 µM (inactive) | GI50 (MCF7): > 100 µM (inactive) | GI50 (OVCAR-3): > 100 µM (inactive) | GI50 (NCI-H460): > 100 µM (inactive) | GI50 (SNB-75): > 100 µM (inactive) | GI50 (HCC 2998): 36.4 µM (inactive) | GI50 (EKVX): > 100 µM (inactive) | GI50 (NCI-H522): > 100 µM (inactive) | GI50 (SN12C): > 100 µM (inactive) | GI50 (SK-MEL-2): > 100 µM (inactive) | GI50 (SR): 28.1 µM (inactive) | GI50 (NCI/ADR-RES): > 100 µM (inactive) | GI50 (NCI-H226): > 100 µM (inactive) | GI50 (SF-539): > 100 µM (inactive) | GI50 (Hs-578T): > 100 µM (inactive) | GI50 (Malme-3M): > 100 µM (inactive) | GI50 (KM12): > 100 µM (inactive) | GI50 (786-0): > 100 µM (inactive) | GI50 (SNB-19): > 100 µM (inactive) | GI50 (HT-29): 75.2 µM (inactive) | GI50 (LOX IMVI): > 100 µM (inactive) | GI50 (SK-OV-3): > 100 µM (inactive) | GI50 (SK-MEL-28): > 100 µM (inactive) | GI50 (RPMI-8226): > 100 µM (inactive) | GI50 (HOP-92): > 100 µM (inactive) | GI50 (UACC-257): > 100 µM (inactive) | GI50 (T47D): > 100 µM (inactive) | GI50 (UO-31): > 100 µM (inactive) | GI50 (CAKI-1): > 100 µM (inactive) | GI50 (UACC-62): > 100 µM (inactive) | GI50 (HCT-116): > 100 µM (inactive) | GI50 (OVCAR-8): > 100 µM (inactive) | GI50 (ACHN): > 100 µM (inactive) | GI50 (HOP-62): > 100 µM (inactive) | GI50 (OVCAR-4): > 100 µM (inactive) | GI50 (IGROV-1): > 100 µM (inactive) | GI50 (TK-10): > 100 µM (inactive) | GI50 (SF-295): > 100 µM (inactive) | GI50 (HCT-15): > 100 µM | GI50 (K562): > 100 µM (inactive) | GI50 (RXF 393): > 100 µM (inactive)

CSc1nc(=O)c2nc(-c3cccs3)c(-c3cccs3)nc2n1C
GI50 (SK-MEL-5): > 100 µM (inactive) | GI50 (SW-620): > 100 µM (inactive) | GI50 (OVCAR-5): 75.3 µM (inactive) | GI50 (M14): > 100 µM (inactive) | GI50 (PC-3): 40.9 µM (inactive) | GI50 (A549): 44.8 µM (inactive) | GI50 (COLO 205): > 100 µM (inactive) | GI50 (DU-145): 34.3 µM (inactive) | GI50 (BT-549): 34.5 µM (inactive) | GI50 (SF-268): 37.2 µM (inactive) | GI50 (MOLT-4): > 100 µM (inactive) | GI50 (MDA-MB-231): 97.7 µM (inactive) | GI50 (U-251): 28.2 µM (inactive) | GI50 (MDA-MB-435): > 100 µM (inactive) | GI50 (HL-60): 96.6 µM (inactive) | GI50 (A498): 32.3 µM (inactive) | GI50 (MDA-N): > 100 µM (inactive) | GI50 (MCF7): 24 µM (inactive) | GI50 (NCI-H460): > 100 µM (inactive) | GI50 (SNB-75): 18.7 µM (inactive) | GI50 (HCC 2998): > 100 µM (inactive) | GI50 (EKVX): 27.6 µM (inactive) | GI50 (NCI-H522): 31 µM (inactive) | GI50 (SN12C): 43.6 µM (inactive) | GI50 (SK-MEL-2): 49.2 µM (inactive) | GI50 (SR): > 100 µM (inactive) | GI50 (NCI/ADR-RES): 50.2 µM (inactive) | GI50 (NCI-H23): 55.8 µM (inactive) | GI50 (Hs-578T): 35.6 µM (inactive) | GI50 (Malme-3M): 50.9 µM (inactive) | GI50 (KM12): > 100 µM (inactive) | GI50 (786-0): 30.2 µM (inactive) | GI50 (SNB-19): 29.8 µM (inactive) | GI50 (HT-29): > 100 µM (inactive) | GI50 (LOX IMVI): 57.5 µM (inactive) | GI50 (SK-OV-3): 26.8 µM (inactive) | GI50 (SK-MEL-28): 43.1 µM (inactive) | GI50 (RPMI-8226): > 100 µM (inactive) | GI50 (HOP-92): 28.8 µM (inactive) | GI50 (UACC-257): > 100 µM (inactive) | GI50 (T47D): 18.7 µM (inactive) | GI50 (UO-31): 33.7 µM (inactive) | GI50 (CAKI-1): 39.6 µM (inactive) | GI50 (UACC-62): 41.7 µM (inactive) | GI50 (HCT-116): > 100 µM (inactive) | GI50 (OVCAR-8): 29.3 µM (inactive) | GI50 (CCRF-CEM): > 100 µM (inactive) | GI50 (ACHN): 37.7 µM (inactive) | GI50 (HOP-62): 20 µM (inactive) | GI50 (OVCAR-4): 30.7 µM (inactive) | GI50 (IGROV-1): 43.5 µM (inactive) | GI50 (TK-10): > 100 µM (inactive) | GI50 (SF-295): 32.7 µM (inactive) | GI50 (HCT-15): > 100 µM | GI50 (K562): > 100 µM (inactive) | GI50 (RXF 393): 18.7 µM (inactive)

COc1ccc(N2NC(c3ccccc3)(c3ccccc3)C(C)C2=O)cc1 (stereo not given)
GI50 (SK-MEL-5): 58.9 µM (inactive) | GI50 (SW-620): 58.9 µM (inactive) | GI50 (OVCAR-5): 56.2 µM (inactive) | GI50 (M14): 57.1 µM (inactive) | GI50 (PC-3): 30.3 µM (inactive) | GI50 (A549): 34.4 µM (inactive) | GI50 (COLO 205): 16 µM (inactive) | GI50 (DU-145): > 100 µM (inactive) | GI50 (BT-549): > 100 µM (inactive) | GI50 (SF-268): 88.5 µM (inactive) | GI50 (MOLT-4): 49.2 µM (inactive) | GI50 (MDA-MB-231): 52.1 µM (inactive) | GI50 (U-251): 64.3 µM (inactive) | GI50 (MDA-MB-435): 57.3 µM (inactive) | GI50 (HL-60): 35.3 µM (inactive) | GI50 (A498): > 100 µM (inactive) | GI50 (MDA-N): 39.1 µM (inactive) | GI50 (MCF7): 25.5 µM (inactive) | GI50 (OVCAR-3): > 100 µM (inactive) | GI50 (NCI-H460): 29.6 µM (inactive) | GI50 (SNB-75): > 100 µM (inactive) | GI50 (HCC 2998): > 100 µM (inactive) | GI50 (EKVX): 68.7 µM (inactive) | GI50 (NCI-H522): 43.9 µM (inactive) | GI50 (SN12C): 82.8 µM (inactive) | GI50 (SK-MEL-2): 51.8 µM (inactive) | GI50 (SR): 96.6 µM (inactive) | GI50 (NCI/ADR-RES): 48.2 µM (inactive) | GI50 (NCI-H23): 65.6 µM (inactive) | GI50 (NCI-H226): 49.8 µM (inactive) | GI50 (SF-539): 85.1 µM (inactive) | GI50 (Hs-578T): 67.5 µM (inactive) | GI50 (Malme-3M): 61.7 µM (inactive) | GI50 (KM12): 33 µM (inactive) | GI50 (SNB-19): > 100 µM (inactive) | GI50 (HT-29): 40 µM (inactive) | GI50 (LOX IMVI): 44 µM (inactive) | GI50 (SK-MEL-28): > 100 µM (inactive) | GI50 (RPMI-8226): > 100 µM (inactive) | GI50 (HOP-92): 48.5 µM (inactive) | GI50 (UACC-257): 51.3 µM (inactive) | GI50 (T47D): 39 µM (inactive) | GI50 (UO-31): 30.1 µM (inactive) | GI50 (CAKI-1): 54.2 µM (inactive) | GI50 (UACC-62): 91.2 µM (inactive) | GI50 (HCT-116): 43 µM (inactive) | GI50 (OVCAR-8): 79.8 µM (inactive) | GI50 (CCRF-CEM): 35.6 µM (inactive) | GI50 (ACHN): 42.7 µM (inactive) | GI50 (HOP-62): > 100 µM (inactive) | GI50 (OVCAR-4): > 100 µM (inactive) | GI50 (IGROV-1): > 100 µM (inactive) | GI50 (TK-10): 86.7 µM (inactive) | GI50 (SF-295): 36.3 µM (inactive) | GI50 (HCT-15): 39.5 µM | GI50 (K562): 52.1 µM (inactive) | GI50 (RXF 393): 52.4 µM (inactive)
